{"source": "patent US12134769B2", "about": "“MicroRNA-198 as a tumor suppressor in ovarian cancer” (Baylor College of Medicine, priority 2011, dated 2024)", "key": {"PBX-1 3′UTR": {"tested_on": "PBX-1 3′UTR", "test": "Dual-luciferase reporter assay, PBX-1 3′UTR", "format": "cell-based", "settings": "following miR-198 transfection/overexpression; firefly/Renilla ratio, 24 h", "method": "A luciferase construct containing the first 491 bases of the PBX-1 3′UTR was purchased from Switchgear Genomics. Two mutant PBX-1 3′UTR reporters were subsequently generated using the Stratagene Quickchange Site-directed Mutagenesis kit, with the WT miR-198 binding site seed region either altered from TCTGGA to AAGCTT (a HindIII restriction site) or deleted entirely (FIG. 10).\nDual luciferase assays were performed according to the manufacturer's instruction. Luciferase expression analysis was performed at 24 h using the Dual-luciferase kit (Promega) and Sirius Luminometer (Berthold Detection System). Results are presented as the ratio of firefly to Renilla luciferase activities, normalized to controls.\nThe PBX-1 3′UTR region was cloned into the pSGG-3UTR vector (based on pGL4.11 vector with a MCS added after luciferase) after the reporter gene, firefly luciferase, whose expression is regulated by the SV40 promoter. A separate reporter for Renilla luciferase under the control of the CMV promoter was utilized to normalize for transfection efficiency. The identity of the 3′UTR sequence including the predicted miR-198 binding site was confirmed using the following primers: Fwd: […] [SEQ ID NO. 111], Rev: […]. [SEQ ID NO. 112]"}, "AsPC1 cells [1]": {"tested_on": "AsPC1 cells", "test": "Invasion assay across Matrigel", "format": "cell-based, human", "settings": "AsPC1 cells following miR-198 overexpression", "method": "(§1) Cell migration was determined with a modified Boyden chamber assay as described previously (Li et al., 2008). For invasion assays, Matrigel basement membrane matrix (BD Biosciences) was used by adding 100 ul of 1 mg/ml Matrigel to the migration chamber inserts prior to plating of the cells (Li et al., 2008, Bharadwaj).\n(§2) An invasion assay was performed as described for the migration assay. For invasion, Matrigel basement membrane matrix (BD Biosciences) was used by adding 100 μl of 1 mg/ml Matrigel to the migration chamber inserts prior to plating of the cells."}, "MIA-MSLN cells [2]": {"tested_on": "MIA-MSLN cells", "test": "Invasion assay across Matrigel", "format": "cell-based, human", "settings": "36 h after miR-198 precursor transfection", "method": "as §1, §2"}, "AsPC1 cells [3]": {"tested_on": "AsPC1 cells", "test": "Migration, modified Boyden chamber assay", "format": "cell-based, human", "settings": "stable miR-198 overexpression in AsPC1 cells, FIG. 14D", "method": "as §1"}, "MIA-MSLN cells [4]": {"tested_on": "MIA-MSLN cells", "test": "Migration, modified Boyden chamber assay", "format": "cell-based, human", "method": "as §1"}, "COS-7 cells": {"tested_on": "COS-7 cells", "test": "Co-transfection with MSLN ORF construct, western blot", "format": "cell-based", "settings": "COS-7 cells co-transfected with WT MSLN plasmid and miR-198 precursors", "excerpt": "A MSLN ORF clone was purchased from Origene (RC202532). Site-directed mutagenesis was used to generate constructs containing silent mutations in each of the three predicted miR-198 binding sites within the CDS of the MSLN gene (FIG. 13). MiR-198 precursors or a scrambled miRNA control were co-transfected into COS-7 cells along with either the WT MSLN ORF construct or each of the single, double, or triple mutants. Cell lysates were collected for western blot analysis. RNA and miRNA were collected for real-time RT-PCR analysis."}, "AsPC1 cells [5]": {"tested_on": "AsPC1 cells", "test": "Stable miR-198 overexpression, expression of network factors", "format": "cell-based, human", "method": "(§3) Western blots were performed as previously described (Li et al., 2008). Membranes were probed with: anti-MSLN monoclonal antibody (1:1000) (Abcam); PBX-1 polyclonal antibody (1:1000) and Caspase 3 antibody (1:1000) (Cell Signaling); OCT-2 polyclonal antibody (1:400), and VCP polyclonal antibody (1:200) (Santa Cruz Biotechnology); or anti-β-actin, Tubulin, LaminA or GAPDH antibodies (1:10,000) (Sigma Aldrich). Secondary incubation was performed with horseradish peroxidase-linked secondary antibody (1:2,000) (anti-mouse, anti-goat or anti-rabbit) (Cell Signaling).\n(§4) MSLN-overexpressing stable cells (or empty vector controls) were selected in MIA PaCa-2 cells or HPDE cells (MIA-MSLN, HPDE-MSLN) or vector (MIA-V, HPDE-V) using retrovirus vectors expressing puromycin resistance (Origene) with 0.5 μg/mL of puromycin added into the medium as previously described (Zhang et al.). Stable cells overexpressing miR-198 or vector control were generated in AsPC-1 (AsPC-1-miR-198, AsPC-1-miR-Ctrl), MIA-MSLN (MIA-MSLN-miR-198, MIA-MSLN-miR-Ctrl), MIA-V (MIA-V-miR-198, MIA-V-miR-Ctrl), and HPDE cells (HPDE-miR-198, HPDE-miR-Ctrl) using the Lenti-miR miRNA Precursor Clone Collection (SBI). The miRZip Lentivector collection from SBI was used to stably knock down miR-198 in MIA-PaCa2 (MIA-V-Zip-198, MIA-V-Zip-Ctrl) and HPDE (HPDE-Zip-198, HPDE-Zip-Ctrl) cells.\n(§5) Differential expression of 95 miRNAs chosen for their potential roles in cancer, cell development, and apoptosis was analyzed by RT-PCR using the QuantiMir System from SBI System Biosciences in both MIA-V and MIA-MSLN cells. The array plate also included the U6 transcript as a normalization signal. cDNAs from different cell lines and tissue samples were mixed with SYBR® Green Mastermix (Bio-Rad Laboratories) plus the universal reverse primer. Specific primers (1 μl) were added to each well of the qPCR plate. Expression levels of each mature miRNA were evaluated using comparative threshold cycle (Ct) method as normalized to that of U6 (2—ΔCt). The expression level of miR-198 was measured in all subsequent experiments using the same method. Real-time RT PCR was performed as previously described for MSLN, ZEB1, PBX-1, and VCP (Li et al., 2008)."}, "MIA-MSLN cells [6]": {"tested_on": "MIA-MSLN cells", "test": "Stable miR-198 overexpression, expression of network factors", "format": "cell-based, human", "settings": "miR-198 overexpression in MIA-MSLN cells", "method": "as §3, §4, §5"}}, "data": [{"substance": "miR-198: microRNA-198, SEQ ID NO: 1 gguccagaggggagauagg; used as transfected precursors (Ambion) or Lenti-miR stable overexpression (GGUCCAGAGGGGAGAUAGG; listed as RNA, chemistry not given here; listed as Homo sapiens)", "values": [{"measurement": "reduction in PBX-1 3′UTR luciferase expression", "setting": "PBX-1 3′UTR", "value": 65, "unit": "%"}, {"measurement": "invasion decreased", "setting": "AsPC1 cells [1]", "value": "~50", "unit": "%"}, {"measurement": "invasion reduced", "setting": "MIA-MSLN cells [2]", "value": 24, "unit": "%"}, {"measurement": "migration reduced", "setting": "AsPC1 cells [3]", "value": 33, "unit": "%"}, {"measurement": "migration reduced", "setting": "AsPC1 cells [3]; listed as MiR-198", "value": "> 50", "unit": "%"}, {"measurement": "migration reduced", "setting": "MIA-MSLN cells [4]; 36 h after transient miR-198 transfection", "value": 44, "unit": "%"}, {"measurement": "migration reduced", "setting": "MIA-MSLN cells [4]; stable miR-198 overexpression, after 48 h", "value": "~40", "unit": "%"}, {"measurement": "expression of WT MSLN protein", "setting": "COS-7 cells", "value": "abolished expression of the WT MSLN protein"}, {"measurement": "VCP mRNA levels downregulated", "setting": "AsPC1 cells [5]; ASPC1 cells following miR-198 overexpression, FIG. 10J", "value": "~5", "unit": "fold"}, {"measurement": "VCP expression downregulated", "setting": "AsPC1 cells [5]; AsPC1 cells following miR-198 overexpression, FIG. 3E", "value": "~50", "unit": "fold"}, {"measurement": "PBX-1 mRNA and protein expression", "setting": "AsPC1 cells [5]; miR-198 overexpression in AsPC1 cells", "value": "almost undetectable"}, {"measurement": "MSLN expression at the protein level", "setting": "MIA-MSLN cells [6]", "value": "almost complete reduction of MSLN expression"}, {"measurement": "MSLN mRNA expression levels", "setting": "MIA-MSLN cells [6]", "value": "partial decrease"}, {"measurement": "PBX-1 mRNA and protein expression", "setting": "MIA-MSLN cells [6]", "value": "almost undetectable"}, {"measurement": "VCP mRNA levels", "setting": "MIA-MSLN cells [6]; FIG. 10I", "value": "reduces VCP down to MIA-V cell levels"}]}]}
